Values after ≈ are worked out from the molar mass of the structure shown.

For one assay, the system named is Mannheimia haemolytica MH 12587 (1071, BRD field isolate, macrolide-resistance: erm+, E+). Briefly: MIC, broth-microdilution (CLSI VET01-A4), strain MH 12587. The assay is classed as cell-based. The following applies: Mannheimia haemolytica strain MH 12587, broth-microdilution; unit assumed. In a few lines:
(§1)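 Doubling dilution series in trays; visual read, MIC = lowest conc. with no visible turbidity; interpretation per CLSI VET01-S3.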
`CC(C)(C)CNCc1ccc(C#Cc2ccc(C(=O)N[C@@H](CO)C(=O)NO)cc2)cc1` [Compound 136] registered an MIC MH 12587 of 25 µg/mL (≈ 59 µM).

Regarding `CSC(C)(C)[C@H](NC(=O)c1ccc(C#Cc2ccc(CNCc3cccs3)cc2)cc1)C(=O)NO` [Compound 251], the MIC MH 12587 turned out to be 1.6 µg/mL (≈ 3.15 µM).

Compound `CC(C)([C@H](NC(=O)c1ccc(C#Cc2ccc(CNC3CCC3)cc2)cc1)C(=O)NO)S(C)(=O)=O` [Compound 263] registered an MIC MH 12587 of 6.3 µg/mL (≈ 12.7 µM).

In the case of `CC(C)([C@H](NC(=O)c1ccc(C#Cc2ccc(CNC3CC3)cc2)cc1)C(=O)NO)S(C)(=O)=O` [C.255], the MIC MH 12587 is 1.6 µg/mL (≈ 3.31 µM).

The next assay has as its system Mannheimia haemolytica MH 13065 (XB0446-6003.9, BRD field isolate). The assay is described as follows: MIC, broth-microdilution (CLSI VET01-A4), strain MH 13065. It counts as cell-based. The following applies: Mannheimia haemolytica strain MH 13065, broth-microdilution; unit assumed. In a few lines: as §1
Background: Broth dilution looks for growth in wells or tubes with falling amounts of substance.
For `CC(C)(C)CNCc1ccc(C#Cc2ccc(C(=O)N[C@@H](CO)C(=O)NO)cc2)cc1` [Compound 136], the MIC MH 13065 came out at 12.5 µg/mL (≈ 29.5 µM).

`CSC(C)(C)[C@H](NC(=O)c1ccc(C#Cc2ccc(CNCc3cccs3)cc2)cc1)C(=O)NO` [Compound 251] displayed an MIC MH 13065 of 0.8 µg/mL (≈ 1.58 µM).

`CC(C)([C@H](NC(=O)c1ccc(C#Cc2ccc(CNC3CCC3)cc2)cc1)C(=O)NO)S(C)(=O)=O` [Compound 263]: the MIC MH 13065 is 3.1 µg/mL (≈ 6.23 µM).

`CC(C)([C@H](NC(=O)c1ccc(C#Cc2ccc(CNC3CC3)cc2)cc1)C(=O)NO)S(C)(=O)=O` [C.255]: the MIC MH 13065 is 0.4 µg/mL (≈ 0.827 µM).

Another assay relates to Mannheimia haemolytica MH 13093 (XB0472-6014.1, BRD field isolate). The assay is described as follows: MIC, broth-microdilution (CLSI VET01-A4), strain MH 13093. It counts as cell-based. The settings on record: Mannheimia haemolytica strain MH 13093, broth-microdilution; unit assumed. An outline of the steps: as §1
The compound `CC(C)(C)CNCc1ccc(C#Cc2ccc(C(=O)N[C@@H](CO)C(=O)NO)cc2)cc1` [Compound 136] yielded an MIC MH 13093 of 25 µg/mL (≈ 59 µM).

In the case of `CSC(C)(C)[C@H](NC(=O)c1ccc(C#Cc2ccc(CNCc3cccs3)cc2)cc1)C(=O)NO` [Compound 251], the MIC MH 13093 amounted to 0.8 µg/mL (≈ 1.58 µM).

For `CC(C)([C@H](NC(=O)c1ccc(C#Cc2ccc(CNC3CCC3)cc2)cc1)C(=O)NO)S(C)(=O)=O` [Compound 263], the MIC MH 13093 was 3.1 µg/mL (≈ 6.23 µM).

`CC(C)([C@H](NC(=O)c1ccc(C#Cc2ccc(CNC3CC3)cc2)cc1)C(=O)NO)S(C)(=O)=O` [C.255] came in with an MIC MH 13093 of 0.8 µg/mL (≈ 1.65 µM).

The next assay concerns Pasteurella multocida PM 6267 (P 2225 (L386), reference strain, mouse infection strain). Briefly: MIC, broth-microdilution (CLSI VET01-A4), strain PM 6267. It counts as cell-based. The following applies: Pasteurella multocida strain PM 6267, broth-microdilution; unit assumed. An outline of the steps: as §1
Take `CC(C)(C)CNCc1ccc(C#Cc2ccc(C(=O)N[C@@H](CO)C(=O)NO)cc2)cc1` [Compound 136]: the MIC PM 6267 was 0.4 µg/mL (≈ 0.944 µM).

The compound `CSC(C)(C)[C@H](NC(=O)c1ccc(C#Cc2ccc(CNCc3cccs3)cc2)cc1)C(=O)NO` [Compound 251] came in with an MIC PM 6267 of at most 0.1 µg/mL.

`CC(C)([C@H](NC(=O)c1ccc(C#Cc2ccc(CNC3CCC3)cc2)cc1)C(=O)NO)S(C)(=O)=O` [Compound 263] displayed an MIC PM 6267 of at most 0.1 µg/mL.

Take `CC(C)([C@H](NC(=O)c1ccc(C#Cc2ccc(CNC3CC3)cc2)cc1)C(=O)NO)S(C)(=O)=O` [C.255]: the MIC PM 6267 is at most 0.1 µg/mL.

Another assay deals with Pasteurella multocida PM 6391 (ATCC 43137, reference strain). Briefly: MIC, broth-microdilution (CLSI VET01-A4), strain PM 6391. It counts as cell-based. The settings on record: Pasteurella multocida strain PM 6391, broth-microdilution; unit assumed. An outline of the steps:
as §1
Regarding `CC(C)(C)CNCc1ccc(C#Cc2ccc(C(=O)N[C@@H](CO)C(=O)NO)cc2)cc1` [Compound 136], the MIC PM 6391 was determined as 0.8 µg/mL (≈ 1.89 µM).

With `CSC(C)(C)[C@H](NC(=O)c1ccc(C#Cc2ccc(CNCc3cccs3)cc2)cc1)C(=O)NO` [Compound 251], the MIC PM 6391 was 0.2 µg/mL (≈ 0.394 µM).

As to `CC(C)([C@H](NC(=O)c1ccc(C#Cc2ccc(CNC3CCC3)cc2)cc1)C(=O)NO)S(C)(=O)=O` [Compound 263], the MIC PM 6391 was 0.4 µg/mL (≈ 0.804 µM).

Consider `CC(C)([C@H](NC(=O)c1ccc(C#Cc2ccc(CNC3CC3)cc2)cc1)C(=O)NO)S(C)(=O)=O` [C.255], for which the MIC PM 6391 was at most 0.1 µg/mL.

Another assay concerns Pasteurella multocida PM 10775 (080130003051, BRD field isolate). Briefly: MIC, broth-microdilution (CLSI VET01-A4), strain PM 10775. It counts as cell-based. The settings on record: Pasteurella multocida strain PM 10775, broth-microdilution; unit assumed. An outline of the steps:
as §1
Compound `CC(C)(C)CNCc1ccc(C#Cc2ccc(C(=O)N[C@@H](CO)C(=O)NO)cc2)cc1` [Compound 136] had an MIC PM 10775 of at most 0.1 µg/mL.

The compound `CSC(C)(C)[C@H](NC(=O)c1ccc(C#Cc2ccc(CNCc3cccs3)cc2)cc1)C(=O)NO` [Compound 251] displayed an MIC PM 10775 of at most 0.1 µg/mL.

Consider `CC(C)([C@H](NC(=O)c1ccc(C#Cc2ccc(CNC3CCC3)cc2)cc1)C(=O)NO)S(C)(=O)=O` [Compound 263], for which the MIC PM 10775 is at most 0.1 µg/mL.

For the compound `CC(C)([C@H](NC(=O)c1ccc(C#Cc2ccc(CNC3CC3)cc2)cc1)C(=O)NO)S(C)(=O)=O` [C.255], the MIC PM 10775 is at most 0.1 µg/mL.

The subject of a further assay is Pasteurella multocida PM 12080 (IV102277-0093, BRD field isolate). The assay is described as follows: MIC, broth-microdilution (CLSI VET01-A4), strain PM 12080. The assay is classed as cell-based. The settings on record: Pasteurella multocida strain PM 12080, broth-microdilution; unit assumed. In a few lines: as §1
Take `CC(C)(C)CNCc1ccc(C#Cc2ccc(C(=O)N[C@@H](CO)C(=O)NO)cc2)cc1` [Compound 136]: the MIC PM 12080 is 0.8 µg/mL (≈ 1.89 µM).

Compound `CSC(C)(C)[C@H](NC(=O)c1ccc(C#Cc2ccc(CNCc3cccs3)cc2)cc1)C(=O)NO` [Compound 251] registered an MIC PM 12080 of at most 0.1 µg/mL.

In the case of `CC(C)([C@H](NC(=O)c1ccc(C#Cc2ccc(CNC3CCC3)cc2)cc1)C(=O)NO)S(C)(=O)=O` [Compound 263], the MIC PM 12080 is 0.2 µg/mL (≈ 0.402 µM).

`CC(C)([C@H](NC(=O)c1ccc(C#Cc2ccc(CNC3CC3)cc2)cc1)C(=O)NO)S(C)(=O)=O` [C.255] showed an MIC PM 12080 of at most 0.1 µg/mL.

A further assay concerns Mannheimia haemolytica MH 10720 (154, BRD field isolate). Briefly: MIC, broth-microdilution (CLSI VET01-A4), strain MH 10720. It counts as cell-based. The following applies: Mannheimia haemolytica strain MH 10720, broth-microdilution; unit assumed. In a few lines: as §1
In the case of `CC(C)(C)CNCc1ccc(C#Cc2ccc(C(=O)N[C@@H](CO)C(=O)NO)cc2)cc1` [Compound 136], the MIC MH 10720 was found to be 1.6 µg/mL (≈ 3.78 µM).

For `CSC(C)(C)[C@H](NC(=O)c1ccc(C#Cc2ccc(CNCc3cccs3)cc2)cc1)C(=O)NO` [Compound 251], the MIC MH 10720 is at most 0.1 µg/mL.

The compound `CC(C)([C@H](NC(=O)c1ccc(C#Cc2ccc(CNC3CCC3)cc2)cc1)C(=O)NO)S(C)(=O)=O` [Compound 263] had an MIC MH 10720 of 0.8 µg/mL (≈ 1.61 µM).

With `CC(C)([C@H](NC(=O)c1ccc(C#Cc2ccc(CNC3CC3)cc2)cc1)C(=O)NO)S(C)(=O)=O` [C.255], the MIC MH 10720 is at most 0.1 µg/mL.

The test system of the next assay is Mannheimia haemolytica MH 6374 (ATCC 33396, reference strain). The assay is described as follows: MIC, broth-microdilution (CLSI VET01-A4), strain MH 6374. It counts as cell-based. The following applies: Mannheimia haemolytica strain MH 6374, broth-microdilution; unit assumed. In a few lines: as §1
`CC(C)(C)CNCc1ccc(C#Cc2ccc(C(=O)N[C@@H](CO)C(=O)NO)cc2)cc1` [Compound 136] came in with an MIC MH 6374 of 12.5 µg/mL (≈ 29.5 µM).

Compound `CSC(C)(C)[C@H](NC(=O)c1ccc(C#Cc2ccc(CNCc3cccs3)cc2)cc1)C(=O)NO` [Compound 251] yielded an MIC MH 6374 of 0.8 µg/mL (≈ 1.58 µM).

In turn, `CC(C)([C@H](NC(=O)c1ccc(C#Cc2ccc(CNC3CCC3)cc2)cc1)C(=O)NO)S(C)(=O)=O` [Compound 263] came in with an MIC MH 6374 of 3.1 µg/mL (≈ 6.23 µM).

As for `CC(C)([C@H](NC(=O)c1ccc(C#Cc2ccc(CNC3CC3)cc2)cc1)C(=O)NO)S(C)(=O)=O` [C.255], the MIC MH 6374 is 0.4 µg/mL (≈ 0.827 µM).

Another assay concerns Mannheimia haemolytica MH 6357 (M7/2, reference strain, cattle infection strain). Briefly: MIC, broth-microdilution (CLSI VET01-A4), strain MH 6357. The settings on record: Mannheimia haemolytica strain MH 6357, broth-microdilution; unit assumed. The assay is classed as cell-based. An outline of the steps: as §1
For the compound `CC(C)(C)CNCc1ccc(C#Cc2ccc(C(=O)N[C@@H](CO)C(=O)NO)cc2)cc1` [Compound 136], the MIC MH 6357 worked out at 3.1 µg/mL (≈ 7.32 µM).

In turn, `CSC(C)(C)[C@H](NC(=O)c1ccc(C#Cc2ccc(CNCc3cccs3)cc2)cc1)C(=O)NO` [Compound 251] returned an MIC MH 6357 of 0.8 µg/mL (≈ 1.58 µM).

In turn, `CC(C)([C@H](NC(=O)c1ccc(C#Cc2ccc(CNC3CCC3)cc2)cc1)C(=O)NO)S(C)(=O)=O` [Compound 263] yielded an MIC MH 6357 of 6.3 µg/mL (≈ 12.7 µM).

Compound `CC(C)([C@H](NC(=O)c1ccc(C#Cc2ccc(CNC3CC3)cc2)cc1)C(=O)NO)S(C)(=O)=O` [C.255] had an MIC MH 6357 of 0.8 µg/mL (≈ 1.65 µM).

The values are drawn from patent publication US11034650B2, “Compounds useful for treating a Mannheimia haemolytica or Histophilus somni infection” (Intervet Inc., priority 2016, dated 2021).
